These results are taken from PubChem BioAssay AID179 (DTP/NCI, 2004).

This assay has as its system CEM cells HIV-1 protection, formazan growth assay. Nature of the assay: NCI AIDS Antiviral Assay. Particulars: for IC50: measured here: growth of uninfected CEM cells. The gist of the method: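 Five concentrations of each compound were applied to infected and uninfected human CEM cells. Protection from HIV-1 was judged from growth measured with a soluble formazan assay.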

Activity calls are given as the source filed them.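 Rule for the calls: active = compounds giving half or more protection of infected cells from virus-caused growth loss, again on retest; inactive = the rest.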 Where a SMILES comes first, the peptide text is derived from it. Bounds are passed on as bounds.

As for `COc1cc(/C=C/C(=O)c2c(=O)o[nH][n+]2-c2ccccc2)ccc1[O-]`, the outcome was inactive. Consider `Nc1onc2c1Cc1c(noc1N)-c1ccccc1-2`, for which the EC50 (commonly the concentration that produces a half-maximal response) is greater than 200 µM and the IC50 (as a rule, the concentration that inhibits the measured activity by half) worked out at 166 µM. With `O=C1c2cn[nH]c2C(c2ccccc2)N1c1ccccc1` (centres undefined), the outcome was inactive. Regarding `COC(=O)C[P+](c1ccccc1)(c1ccccc1)c1ccccc1`, the EC50 was greater than 200 µM and the IC50 was greater than 200 µM. On to `c1ccc(C2=C(c3ccccc3)Sc3nnc(CCCCCCCCc4nnc5n4NC(c4ccccc4)=C(c4ccccc4)S5)n3N2)cc1`, for which the EC50 is greater than 200 µM and the IC50 came to 89.1 µM. Taken in the same sequence, the figures for `S=c1[nH]c(=S)c2nc(Nc3ccccc3)sc2[nH]1` were greater than 617 µM and greater than 617 µM. Taken in the same sequence, the figures for `CCO/N=C\c1c2c(O)c3c(O)c(C)c4c(c3c1O)C(=O)C(C)(O/C=C\C(OC)C(C)C(OC(C)=O)C(C)C(O)C(C)C(O)C(C)/C=C\C=C(\C)C(=O)N2)O4` (centres undefined) were greater than 151 µM and 8.13 µM. Taken in the same sequence, the figures for `CCOC(=O)C1=CN(Cc2ccccc2)C2ON=C(c3ccc(Cl)cc3)C2C1` (centres undefined) were greater than 200 µM and 31.6 µM. Take `O=[N+]([O-])c1cc(C(F)(F)F)cc2c1SC1=Nc3ccccc3CN12`: the result was inactive.

In the case of `CC(C)(C)C#CI1OC(=O)c2ccccc21`, the EC50 is greater than 200 µM and the concentration for half-maximal inhibition (IC50) was determined as 2.14 µM. For the compound `CCOC(=O)/C(=C\c1ccccc1)C(=O)O`, the EC50 was greater than 1120 µM and the half-maximal inhibitory concentration (IC50) is 240 µM. Taken in the same sequence, the figures for `COc1ccc(N2C(=O)C3C=CC(n4[nH]c(=O)n(Cc5ccccc5)c4=O)CC3C2=O)cc1` (centres undefined) were greater than 407 µM and 209 µM. For the compound `CN1CC[C@]2(C)c3c(O)cccc3CC3CCCC1C32C` (some centres undefined), the outcome was inactive. As to `CC(C)(C)OC(=O)NCC(=O)NCC(=O)NCC(=O)NCC(=O)O` (HELM PEPTIDE1{[CC(C)(C)OC(=O)[*:2]].G.G.G.G}$$$$V2.0), the EC50 is greater than 724 µM and the 50% inhibitory concentration (IC50) is greater than 724 µM. Regarding `O=C1c2c(n(Cc3ccccc3)c(=O)n2Cc2ccccc2)C(=O)N1Cc1ccccc1`, the EC50 was greater than 17 µM and the IC50 is greater than 17 µM. As to `CSC1=Nc2cccnc2Nc2cscc21`, the EC50 was greater than 200 µM and the IC50 was 1.26 µM. Taken in the same sequence, the figures for `CCCCc1ccc(Nc2nc(N)c3[nH]cnc3n2)cc1` were greater than 200 µM and 24.5 µM.

Turning to `CC1(C)N=C(N)N=C(N)N1c1ccc(CCCCc2ccc(S(=O)(=O)F)cc2Cl)c(Cl)c1`, the EC50 is greater than 107 µM and the 50% inhibitory concentration (IC50) is 1.41 µM. The matching figures for `[Cu+2].[O-]/C(=N\N=C/c1ccccc1F)c1ccncc1.[O-]/C(=N\N=C\c1ccccc1F)c1ccncc1`: greater than 100 µM and 16.2 µM. Taken in the same sequence, the figures for `CN(C)CCNC(=O)c1noc2c1CSc1ccccc1-2` were greater than 407 µM and 28.2 µM. On to `C=CCOc1c(C)cc(C#N)cc1C`, for which the result was inactive. Turning to `CC[n+]1c(/C=C/c2ccc(N(CCCl)CCCl)cc2)ccc2cc(Br)ccc21`, the outcome was inactive. Regarding `O=C1/C(=C/c2cccs2)NC(=S)N1CN1CCOCC1`, the EC50 was greater than 200 µM and the half-maximal inhibitory concentration (IC50) was found to be 34.7 µM. As to `COc1cc(NS(C)(=O)=O)ccc1NCc1c2ccccc2nc2ccccc12`, the result was inactive. Consider `O=C1C2CCN(CC2)C1CN1CCOCC1` (centres undefined), for which the outcome was inactive. On the same count and under the same terms, next, `C[Se]CCC1OC[C@H]2O[C@@H](n3cc(C)c(=O)[nH]c3=O)C[C@H]2N1O` (some centres undefined): “active”; `Clc1cccc2c(N3CC3)cnnc12`: “inactive”. The same measure, in the same setting: next, `COc1ccc(-c2[nH]c3ccccc3c2CCNS(=O)(=O)c2ccc(C)cc2)cc1`: “inactive”. Take `NCCCN1CCN(CCCN)CC1` (tested in a mixture with another compound): the EC50 is greater than 200 µM and the IC50 is greater than 200 µM. For the compound `C[Si](C)(C)C#CC(O)CS(=O)c1ccccc1` (centres undefined), the EC50 is greater than 200 µM and the IC50 came to 105 µM. Taken in the same sequence, the figures for `NC(=O)CCNC(=O)c1ccccc1SC(=O)OCCBr` were 6.31 µM and greater than 200 µM. Taken in the same sequence, the figures for `CC1=C(C(=O)Nc2c(C)cccc2C)C(c2ccccc2Cl)C(C(=O)Nc2c(C)cccc2C)=C(C)N1` were greater than 355 µM and 324 µM.

For the compound `CCCCCCCCCCCCCCCCOP(=O)(O)OCC(NC(C)=O)C(=O)O` (centres undefined), the EC50 was greater than 200 µM and the half-maximal inhibitory concentration (IC50) amounted to 63.1 µM. Consider `CC1(C)CC(=O)C(C(=O)C(=O)NC2=C(Cl)C(=O)c3ccccc3C2=O)C(=O)C1`, for which the EC50 was greater than 17.8 µM.

Consider `C#CC1(O)CCC2C3CCC4=C(CCC(=O)C4)C3CCC21C` (centres undefined), for which the EC50 is 30.9 µM and the IC50 was 166 µM. Taken in the same sequence, the figures for `C=C[C@@]1(O)CCCC[C@@H]1CC(Sc1ccccc1)Sc1ccccc1` were greater than 200 µM and 19.5 µM. The matching figures for `CN(C)Cc1cc(N=Nc2ccccc2)ccc1O`: greater than 200 µM and 102 µM. For `O=C1CCCCCCCCCCC(=O)N2CCOCCOCCN1Cc1cccc(n1)C2`, the EC50 is greater than 407 µM and the concentration for half-maximal inhibition (IC50) amounted to 316 µM. Turning to `Oc1ccc(C2CC(O)c3ccccc3O2)cc1` (centres undefined), the result was inactive. Still for that read-out and setting: with `CC(=O)OC1C(OC(C)=O)[C@@]2(C)C(C(O)[C@@H]3C2C(C)C=C2OC(=O)[C@@](C)(O)[C@@]23C)[C@H]2C1[C@]1(C)C(C[C@@H]3O[C@@H]3C1OC(C)=O)C(=O)[C@@H]2O` (some centres undefined) the entry was “inactive”. Take `Cc1cc(O)c(C=NC(=S)c2ccncc2)c(=O)o1`: the EC50 is greater than 200 µM and the IC50 is greater than 200 µM. For `Cc1cc(=O)n2c(nc3cc(Cl)ccc32)s1`, the EC50 is greater than 28.8 µM and the IC50 is greater than 28.8 µM. For the compound `CC(C)N([P-]C(=O)[P-]N(C(C)C)C(C)C)C(C)C.[C-]#[O+].[C-]#[O+].[C-]#[O+].[C-]#[O+].[C-]#[O+].[C-]#[O+].[Fe].[Fe]` (centres undefined), the EC50 was greater than 3.55 µM and the IC50 is greater than 3.55 µM.

Consider `Nc1nc(Cl)cc(NCCCCCCCCNc2cc(Cl)nc(N)n2)n1`, for which the result was inactive. On to `O=C1c2ccccc2-c2cc(N3C(=O)C=CC3=O)ccc21`, for which the EC50 is greater than 200 µM and the IC50 amounted to 17 µM.

`O=C(O)c1ccccc1-c1c2ccc(=O)c(I)c-2oc2c(I)c(O)ccc12` registered an EC50 greater than 316 µM and an IC50 of 19.1 µM. Taken in the same sequence, the figures for `O=C1C(SCCO)=C(SCCO)C(=O)c2[nH]cnc21` were greater than 437 µM and 42.7 µM. `N/N=c1\c2ccccc2c2ccc3c4ccccc4/c(=N\N)c3c12`: the EC50 was greater than 11.5 µM and the IC50 is greater than 11.5 µM. Take `O=[N+]([O-])C1=C(c2ccccc2)SC([N+](=O)[O-])=C(c2ccccc2)S1`: the EC50 was greater than 200 µM and the half-inhibitory concentration (IC50) turned out to be 14.8 µM. Consider `COc1cc(C)cc2c(-c3c(O)cc(O)c4c3CC(C)N[C@H]4C)cc(-c3cc(-c4c(O)cc(O)c5c4CC(C)N[C@H]5C)c4cc(C)cc(OC)c4c3O)c(O)c12` (some centres undefined), for which the concentration giving a half-maximal response (EC50) is 38 µM and the 50% inhibitory concentration (IC50) was determined as 166 µM. With `N=C(N)SCN1C(=O)c2ccccc2C1=O`, the EC50 was greater than 200 µM and the IC50 was greater than 200 µM. `c1ccc(-c2c3c(nc4c2CC[C@H]4NC2=NCCN2)[C@@H](NC2=NCCN2)CC3)cc1`: the EC50 is greater than 200 µM and the IC50 was greater than 200 µM. `CSC(=S)NNC(=O)c1ccncc1`: the EC50 was greater than 12 µM and the IC50 is greater than 12 µM. Take `Oc1cccc2cc(Br)cnc12`: the EC50 is greater than 20 µM and the concentration for half-maximal inhibition (IC50) was 5.01 µM. As for `CC(=O)CCn1[nH]c(=O)c(Cl)c(Cl)c1=O`, the EC50 was greater than 1000 µM and the IC50 was greater than 1000 µM. Turning to `Clc1cc(Cl)c(OCC#CI)cc1Cl`, the EC50 is greater than 200 µM and the half-maximal inhibitory concentration (IC50) came out at 6.92 µM. The matching figures for `N#C/C(=C\NC(=S)Nc1ccc(S(=O)(=O)Nc2nccs2)cc1)C(=O)c1ccc2ccccc2c1`: greater than 200 µM and 36.3 µM. The matching figures for `[Cl-].[Co+2].c1cnc2c(c1)ccc1cccnc12.c1cnc2c(c1)ccc1cccnc12.c1cnc2c(c1)ccc1cccnc12`: greater than 100 µM and 0.977 µM. On to `C#CC1(O)CCC2[C@@H]3CCc4cc(Oc5nc(F)nc(-c6c(C)c(C(=O)OCC)n7ccccc67)n5)ccc4C3CC[C@@]21C` (some centres undefined), for which the EC50 was greater than 100 µM and the IC50 was greater than 100 µM. Take `COC(=O)/C(=C/c1c[nH]c2ccccc12)NC=O`: the EC50 is greater than 200 µM and the 50% inhibitory concentration (IC50) is greater than 200 µM. Turning to `Cc1nnc(NC(=O)c2cc(=O)c3ccccc3o2)s1`, the EC50 is greater than 91.2 µM and the IC50 was greater than 91.2 µM. Turning to `CC(C)(CO)CNc1cc(=O)[nH]c(N)n1`, the EC50 is greater than 200 µM and the IC50 is greater than 200 µM. Consider `COc1ccc2c(c1OC)Oc1c(OC)ccc3c1C(C2)N(C)C[C@@H]3O` (some centres undefined), for which the EC50 was greater than 251 µM and the IC50 was greater than 251 µM. For the compound `O=c1[nH]c2ccccc2c(O)c1O`, the EC50 is greater than 200 µM and the half-inhibitory concentration (IC50) is greater than 200 µM. As for `O=C(O)c1cc(=O)c2cc3c(cc2o1)OCc1ccccc1-3`, the EC50 is greater than 93.3 µM and the half-maximal inhibitory concentration (IC50) was greater than 93.3 µM. With `CC1(C)CCc2cc3c(O)c(-c4ccccc4)c(=O)oc3cc2O1`, the EC50 is greater than 200 µM and the IC50 worked out at 77.6 µM. The matching figures for `CCCCCCCCCCCCCCCCCC(=O)OCC(C[As](=O)(O)O)OC(=O)CCCCCCCCCCCCCCCCC` (centres undefined): greater than 17.8 µM and greater than 17.8 µM. `CCOC(=O)c1c(NS(=O)(=O)c2ccccc2)sc2c1CCCC2`: the result was inactive. Take `O=C1OC(=O)c2c1c(-c1ccccc1)nc1ccccc21`: the EC50 was greater than 107 µM and the IC50 is greater than 107 µM.

`COc1cc(Cl)cc(N(O)C(C)=O)c1OCc1ccccc1`: the EC50 was greater than 562 µM and the 50% inhibitory concentration (IC50) was found to be 58.9 µM. The matching figures for `COc1c2occc2c(N=Cc2ccccn2)c2ccc(=O)oc12`: greater than 39.8 µM and greater than 39.8 µM. The matching figures for `C=CCN1CCC(OC(=O)C(O)(/C=C\CC)C2CCCC2)CC1` (centres undefined): greater than 200 µM and greater than 200 µM. For `S=C1NC(/C=C/c2ccccc2)N2C(=S)NC(/C=C\c3ccccc3)N12` (centres undefined), the result was inactive.
